Source: US6737383B1, “Herbicidal oxadiazolidines” (priority 1999, dated 2004)

Experiments:
bedstraw = experiment: Test B pre/postemergence bedstraw; assay type: in vivo, Galium aparine
In short: (§1)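 Herbicidal effect was estimated by eye on a ten-point control scale after plants spent twelve to sixteen days in a greenhouse following soil or foliar treatment. Foliar sprays targeted plants at one to four leaves; all doses were formulated in a non-phytotoxic solvent with surfactant.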

pigweed = experiment: Test B pre/postemergence pigweed; assay type: in vivo, Amaranthus retroflexus
In short: as §1

rice = experiment: Test B flood test rice; assay type: in vivo, Oryza sativa; details: for Plant response rating, Rice (0 to 10 scale, 0 is no effect, 10 is complete control) / Rice plant response rating (0 to 10 scale, 0 is no effect, 10 is complete control): visual evaluation after twelve to sixteen days; for Rice plant response rating (0 to 10 scale, 0 is no effect, 10 is complete control): under heading Pre-emergence
In short: (§2)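 Flood test on plants grown to the 2-leaf stage; treated plants kept in greenhouse twelve to sixteen days, then visually rated against controls on a 0 (no effect) to 10 (complete control) scale.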

bamyardgrass = experiment: Test B flood test barnyardgrass; assay type: in vivo, Echinochloa crus-galli; details: for Plant response rating, Barnyardgrass (0 to 10 scale, 0 is no effect, 10 is complete control) / Barnyardgrass plant response rating (0 to 10 scale, 0 is no effect, 10 is complete control): visual evaluation after twelve to sixteen days; for Barnyardgrass plant response rating (0 to 10 scale, 0 is no effect, 10 is complete control): under heading Pre-emergence
In short: as §2

[1] = Postemergence, Rate 62 g/ha, scale of 0 to 10, 0 is no effect, 10 is complete control
[2] = Postemergence, Rate 500 g/ha, scale of 0 to 10 where 0 is no effect and 10 is complete control
[3] = Preemergence, Rate 62 g/ha, scale 0 to 10 (0 no effect, 10 complete control)
[4] = Preemergence, Rate 125 g/ha, scale 0 to 10, 0 is no effect, 10 is complete control
[5] = Preemergence, Rate 500 g/ha, scale of 0 to 10 where 0 is no effect and 10 is complete control
[6] = Rate 250 g/ha, Postemergence, scale of 0 to 10 where 0 is no effect and 10 is complete control
[7] = Rate 62 g/ha, flood test species, Pre-emergence
[8] = Rate 125 g/ha, flood test species
[9] = Rate 250 g/ha, Pre-emergence (flood test species), scale 0 to 10, 0 is no effect, 10 is complete control
[10] = Rate 500 g/ha, Pre-emergence section of Table B, 0 to 10 scale (0 no effect, 10 complete control)
[11] = Postemergence, Rate 62 g/ha, scale 0 to 10, 0 is no effect, 10 is complete control
[12] = Postemergence, Rate 250 g/ha, scale 0 to 10, 0 no effect, 10 complete control
[13] = Preemergence, Rate 125 g/ha, scale 0 to 10 (0 no effect, 10 complete control)
[14] = Preemergence, Rate 250 g/ha, scale of 0 to 10 where 0 is no effect and 10 is complete control
[15] = Preemergence, Rate 500 g/ha, scale 0 (no effect) to 10 (complete control)
[16] = Rate 125 g/ha, Postemergence, scale 0 to 10, 0 no effect, 10 complete control
[17] = Rate 500 g/ha, Postemergence, scale 0 to 10, 0 no effect, 10 complete control
[18] = Rate 125 g/ha, Postemergence section (flood test species), scale 0 to 10, 0 no effect, 10 complete control
[19] = Rate 500 g/ha, listed under Postemergence (flood test species), scale 0 to 10, 0 no effect, 10 complete control
[20] = flood test, listed under Postemergence, Rate 250 g/ha, scale 0 to 10, 0 no effect, 10 complete control
[21] = Preemergence, Rate 125 g/ha, scale of 0 to 10 where 0 is no effect and 10 is complete control
[22] = Rate 250 g/ha, Pre-emergence, flood-test species, scale 0 to 10, 0 is no effect, 10 is complete control
[23] = Rate 500 g/ha, Pre-emergence, flood test species, scale 0 to 10 (0 no effect, 10 complete control)

CCCCn1c(=O)on(C(=O)N(c2ccccc2)C(C)C)c1=O [Compound 556]
Bedstraw plant response rating (bedstraw; [1]): 0 | Bedstraw plant response rating (bedstraw; Postemergence, Rate 125 g/ha, scale 0 to 10, 0 is no effect, 10 is complete control): 0 | Plant response rating, Bedstraw (bedstraw; [2]): 0 | Bedstraw plant response rating (bedstraw; [3]): 0 | Bedstraw plant response rating (bedstraw; [4]): 0 | Bedstraw plant response rating (0 to 10 scale) (bedstraw; Preemergence, Rate 250 g/ha): 0 | Bedstraw plant response rating (bedstraw; [5]): 0 | Plant response rating, Bedstraw (bedstraw; [6]): 0 | Redroot pigweed plant response rating (pigweed; [1]): 3 | Plant response rating, Redroot pigweed (pigweed; [2]): 4 | Redroot pigweed plant response rating (pigweed; [3]): 0 | Redroot pigweed plant response rating (pigweed; [4]): 5 | Redroot pigweed plant response rating (0 to 10 scale) (pigweed; Preemergence, Rate 250 g/ha): 5 | Redroot pigweed plant response rating (pigweed; [5]): 5 | Plant response rating, Redroot pigweed (pigweed; [6]): 3 | Plant response rating, Rice (0 to 10 scale, 0 is no effect, 10 is complete control) (rice; [7]): 0 | Rice plant response rating (0 to 10 scale, 0 is no effect, 10 is complete control) (rice; [8]): 0 | Rice plant response rating (rice; [9]): 0 | Rice plant response rating (rice; [10]): 0 | Plant response rating, Barnyardgrass (0 to 10 scale, 0 is no effect, 10 is complete control) (bamyardgrass; [7]): 0 | Barnyardgrass plant response rating (0 to 10 scale, 0 is no effect, 10 is complete control) (bamyardgrass; [8]): 0 | Barnyardgrass plant response rating (bamyardgrass; [9]): 0 | Barnyardgrass plant response rating (bamyardgrass; [10]): 1

Cc1cccc(C(C)C)c1-n1c(=O)on(C(=O)N(c2ccccc2)C(C)C)c1=O [Compound 66]
Bedstraw plant response rating (bedstraw; [11]): 0 | Bedstraw plant response rating (bedstraw; [12]): 0 | Bedstraw plant response rating (bedstraw; [3]): 0 | Plant response rating, Bedstraw (bedstraw; [13]): 0 | Plant response rating, Bedstraw (bedstraw; [14]): 0 | Bedstraw plant response rating (bedstraw; [15]): 0 | Bedstraw plant response rating (bedstraw; [16]): 0 | Bedstraw plant response rating (bedstraw; [17]): 2 | Redroot pigweed plant response rating (pigweed; [11]): 0 | Redroot pigweed plant response rating (pigweed; [12]): 0 | Redroot pigweed plant response rating (pigweed; [3]): 0 | Plant response rating, Redroot pigweed (pigweed; [13]): 0 | Plant response rating, Redroot pigweed (pigweed; [14]): 0 | Redroot pigweed plant response rating (pigweed; [15]): 0 | Redroot pigweed plant response rating (pigweed; [16]): 0 | Redroot pigweed plant response rating (pigweed; [17]): 4 | Rice plant response rating (rice; [11]): 0 | Rice plant response rating (rice; [18]): 0 | Rice plant response rating (rice; [19]): 0 | Rice plant response rating (rice; [20]): 0 | Barnyardgrass plant response rating (bamyardgrass; [11]): 0 | Barnyardgrass plant response rating (bamyardgrass; [18]): 0 | Barnyardgrass plant response rating (bamyardgrass; [19]): 3 | Barnyardgrass plant response rating (bamyardgrass; [20]): 0

Cc1nc(Cl)sc1C(C)n1c(=O)on(C(=O)N(c2ccc(F)cc2)C(C)C)c1=O (stereo not shown) [Compound 401]
Plant response rating, Bedstraw (bedstraw; [3]): 0 | Plant response rating, Bedstraw (bedstraw; [21]): 0 | Plant response rating, Redroot pigweed (pigweed; Postemergence, Rate 250 g/ha, scale 0 to 10, 0 is no effect, 10 is complete control): 1 | Redroot pigweed plant response rating (pigweed; [2]): 2 | Plant response rating, Redroot pigweed (pigweed; [3]): 0 | Plant response rating, Redroot pigweed (pigweed; [21]): 0 | Redroot pigweed plant response rating (pigweed; Preemergence, Rate 250 g/ha, scale 0 to 10, 0 is no effect, 10 is complete control): 0 | Redroot pigweed plant response rating (pigweed; Preemergence, Rate 500 g/ha, scale 0 to 10, 0 is no effect, 10 is complete control): 0 | Redroot pigweed plant response rating (pigweed; Rate 62 g/ha, Postemergence, scale of 0 to 10 where 0 is no effect and 10 is complete control): 0 | Plant response rating, Rice (0 to 10 scale, 0 is no effect, 10 is complete control) (rice; [7]): 0 | Rice plant response rating (0 to 10 scale, 0 is no effect, 10 is complete control) (rice; [8]): 0 | Rice plant response rating (rice; [22]): 0 | Rice plant response rating (rice; [23]): 0 | Plant response rating, Barnyardgrass (0 to 10 scale, 0 is no effect, 10 is complete control) (bamyardgrass; [7]): 0 | Barnyardgrass plant response rating (0 to 10 scale, 0 is no effect, 10 is complete control) (bamyardgrass; [8]): 0 | Barnyardgrass plant response rating (bamyardgrass; [22]): 0 | Barnyardgrass plant response rating (bamyardgrass; [23]): 0
